Results from patent US20240180920A1, “CERTAIN FASCIN BINDING COMPOUNDS FOR SPINOGENESIS” (Spinogenix, Inc., priority 2021, published 2024).

Legend:
[1] = tested on: primary mouse hippocampal neurons; test: Synaptic density (colocalized PSD95/VGlut elements per length of dendrite) in treated neurons, FIG. 1; assay type: cell-based; settings: 10 μM compared with 500 nM and 50 nM, 24 hours
Protocol: Specifically, primary mouse hippocampal neurons were treated on day 14 in culture with one of the four compounds, each at concentrations of 10 μM, 500 nM, and 50 nM, or with control (vehicle (0.1% DMSO)) for 24 hours. Following the treatments, neurons were fixed in 4% paraformaldehyde and processed for staining with phalloidin and immunolabeling with antibodies to the postsynaptic marker PSD95, and the presynaptic marker VGlut. Images were acquired using a laser scanning confocal microscope and analyzed for the number of colocalized pre and post synaptic elements per length of dendrite. Studies were performed across 3 biological preparations of primary neurons, with a minimum of 12 dendritic segments analyzed per treatment/prep. Graphing and statistical analyses of synaptic density data were performed with Prism software.

[2] = biological target: fascin actin-binding site 2 (Homo sapiens, UniProt Q16658); settings: stated as known; cited from earlier work
fascin = fascin (Homo sapiens, UniProt Q16658); settings: stated as known; cited from earlier work

Row | SMILES | concentration dependence of activity (synaptic density) [1] | interaction with or binding to fascin [2] | effect on fascin's actin-bundling activity (fascin)
1 | N=C(N)NCCCCC(=O)Nc1cc(C(F)(F)F)cc(NC(=O)c2cc(C(=O)Nc3cc(C(F)(F)F)cc(NC(=O)CCCCNC(=N)N)c3O[C@@H]3CCNC3)ncn2)c1O[C@@H]1CCNC1 (racemic) [brilacidin] | higher activities at the concentration of 10 μM than at lower concentrations | – | –
2 | CN(C)CCCN1c2ccccc2CCc2ccccc21 [imipramine] | higher activities at the concentration of 10 μM than at lower concentrations | known to interact with or bind fascin at actin-binding site 2 | interact or inhibit fascin's actin-bundling activity
3 | C/C(=N\NC(=N)N)c1cc(NC(=O)CCCCCCCCC(=O)Nc2cc(/C(C)=N/NC(=N)N)cc(/C(C)=N/NC(=N)N)c2)cc(/C(C)=N/NC(=N)N)c1 [semapimod] | higher activities at the concentration of 10 μM than at lower concentrations | – | –
